Strand notation (5' to 3'): a small letter for the sugar, then the base; units joined by * are phosphorothioate-linked, units joined directly phosphodiester-linked; [ ] holds rarer units or linkages, { } end groups; capitals alone tell only the bases. e = 2'-O-(2-methoxyethyl) (MOE); [5mC] = 5-methylcytosine; d = 2'-deoxy (DNA)
System: human PKK mRNA
Assay: Antisense inhibition of human PKK mRNA in HepaRG cells, 5,000 nM (Example 2)
Type: cell-based
How it was run: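 HepaRG cells, 20,000 per well, were electroporated with 5,000 nM MOE gapmer (phosphorothioate, 5-methylcytosine) and incubated about 24 hours. PKK mRNA was quantified by qRT-PCR with primer probe set RTS3454, normalized to RIBOGREEN total RNA, and expressed as percent inhibition versus untreated controls.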

[1] = HepaRG cells, electroporation, 5,000 nM antisense oligonucleotide, approx. 24 hours, primer probe set RTS3454, relative to untreated control cells, Table 11
[2] = human PKK mRNA in HepaRG cells, 5-10-5 gapmers, Table 14
[3] = HepaRG cells, electroporation, 5,000 nM antisense oligonucleotide, approx. 24 hours, primer probe set RTS3454, relative to untreated control cells, Table 12
[4] = Table 13, human PKK mRNA in HepaRG cells, 5-10-5 gapmers
[5] = HepaRG cells, 5,000 nM antisense oligonucleotide, 5-10-5 gapmers, Table 17
[6] = human PKK mRNA, HepaRG cells, 5,000 nM antisense oligonucleotide, Table 18
[7] = human PKK mRNA, HepaRG cells, 5-10-5 motif oligonucleotides targeting SEQ ID NO: 1 and 10
[8] = Table 7, HepaRG cells, electroporation with 5,000 nM antisense oligonucleotide, approx. 24 hours, PKK mRNA by RT-PCR (RTS3454), relative to untreated control cells
[9] = Table 9 experiment, HepaRG cells, 20,000 cells per well, electroporation with 5,000 nM antisense oligonucleotide, approx. 24 hours, PKK mRNA by RT-PCR (RTS3454), relative to untreated control cells
[10] = Table 10 experiment, HepaRG cells, 20,000 cells per well, electroporation with 5,000 nM antisense oligonucleotide, approx. 24 hours, PKK mRNA by RT-PCR (RTS3454), relative to untreated control cells
[11] = HepaRG cells, electroporation with 5,000 nM antisense oligonucleotide, approximately 24 hours, PKK mRNA by RT-PCR (RTS3454), relative to untreated control cells, Table 5 experiment
[12] = HepaRG cells, electroporation with 5,000 nM antisense oligonucleotide, approximately 24 hours, PKK mRNA by RT-PCR (RTS3454), relative to untreated control cells, Table 6 experiment

Substance: 547509 (antisense e[5mC]*e[5mC]*e[5mC]*e[5mC]*e[5mC]*d[5mC]*dA*dG*dG*d[5mC]*dT*d[5mC]*dA*dG*dA*eA*eT*eT*eT*eG) [compound 547509]
- % inhibition [1]: 58%

Substance: 546867 (eA*e[5mC]*e[5mC]*eT*eA*dT*dA*dA*d[5mC]*dT*d[5mC]*dT*dA*dA*d[5mC]*eA*eG*eT*eA*eT; antisense) [compound 546867]
- % inhibition [2]: 40%

Substance: 546864 (eA*eT*eA*eA*e[5mC]*dT*dA*dT*dA*dA*d[5mC]*dA*dA*dT*dA*eT*e[5mC]*eA*e[5mC]*eT; antisense) [compound 546864]
- % inhibition [2]: 0%

Substance: 546425 (eG*eG*eT*e[5mC]*eA*dA*dT*d[5mC]*dT*dG*dA*d[5mC]*dT*dA*dG*eT*eG*eA*eA*eT; antisense) [compound 546425]
- % inhibition [3]: 69%

Substance: 547495 (antisense eG*e[5mC]*eT*eG*eG*dT*dG*dA*d[5mC]*dT*dG*d[5mC]*dA*dT*d[5mC]*eT*eG*eA*eG*e[5mC]) [compound 547495]
- % inhibition [1]: 61%

Substance: 547572 (eA*eA*eA*eT*eG*dA*d[5mC]*dA*d[5mC]*d[5mC]*dA*dA*dA*dA*dT*eT*e[5mC]*eG*e[5mC]*eT; antisense) [compound 547572]
- % inhibition [4]: 40%

Substance: 547025 (eT*eG*eG*eT*eG*dG*dT*dG*dG*dG*dA*dT*dT*dG*dG*eT*eG*eG*eT*eT; antisense) [compound 547025]
- % inhibition [5]: 72%

Substance: 546684 (eT*eA*e[5mC]*eT*e[5mC]*dT*d[5mC]*dT*dA*d[5mC]*dA*dT*dA*d[5mC]*dT*e[5mC]*eA*eG*eG*eA; antisense) [compound 546684]
- % inhibition [3]: 71%

Substance: 546453 (e[5mC]*eT*e[5mC]*eA*eT*dT*dG*dT*dT*dG*dT*dG*dT*dG*dG*e[5mC]*e[5mC]*e[5mC]*eT*e[5mC]; antisense) [compound 546453]
- % inhibition [3]: 82%

Substance: 547621 (antisense eT*eA*e[5mC]*eT*eA*dG*dT*dT*dT*d[5mC]*d[5mC]*dT*dA*dT*dA*eA*e[5mC]*eA*eG*eT) [compound 547621]
- % inhibition [2]: 12%

Substance: 546856 (eA*eA*e[5mC]*eT*eA*dT*dA*dA*d[5mC]*dA*dG*dT*dA*dT*d[5mC]*eA*e[5mC]*eT*eG*eT; antisense) [compound 546856]
- % inhibition [2]: 54%

Substance: 547623 (antisense eT*eG*eT*e[5mC]*eA*d[5mC]*dT*dG*dT*dA*d[5mC]*d[5mC]*dT*dA*dT*eA*eA*e[5mC]*eT*e[5mC]) [compound 547623]
- % inhibition [2]: 81%

Substance: 548749 (antisense eT*eG*eT*eA*d[5mC]*dT*dA*dG*dT*dT*dT*d[5mC]*d[5mC]*dT*eA*eT*eA*eA) [compound 548749]
- % inhibition [6]: 0%

Substance: 546687 (eT*eG*eA*eG*eA*d[5mC]*d[5mC]*dT*d[5mC]*d[5mC]*dA*dG*dA*d[5mC]*dT*eA*e[5mC]*eT*eG*eT; antisense) [compound 546687]
- % inhibition [3]: 76%

Substance: 548708 (DNA eT*eA*e[5mC]*dT*dA*dG*dT*dT*dT*d[5mC]*d[5mC]*dT*dA*eT*eA*eA; antisense) [compound 548708]
- % inhibition (HepaRG cells, 5,000 nM antisense oligonucleotide, human PKK mRNA, Table 18): 0%

Substance: 546901 (eA*e[5mC]*eT*eG*eT*d[5mC]*d[5mC]*dT*dA*dT*dA*dA*d[5mC]*dT*dA*eT*eA*eA*e[5mC]*eA; antisense) [compound 546901]
- % inhibition [7]: 56%

Substance: 546885 (eT*eA*eT*eG*eT*d[5mC]*dA*d[5mC]*dT*dG*dT*dA*d[5mC]*d[5mC]*dT*eA*eT*eA*eA*e[5mC]; antisense) [compound 546885]
- % inhibition [7]: 46%

Substance: 546226 (antisense e[5mC]*e[5mC]*eA*eT*eA*d[5mC]*dA*dT*dT*dT*dG*dT*dA*dT*dA*eG*eA*eA*eT*eG) [compound 546226]
- % inhibition [8]: 37%

Substance: 547470 (antisense eT*e[5mC]*eG*eA*eG*dA*dA*dG*d[5mC]*d[5mC]*d[5mC]*d[5mC]*dA*dT*d[5mC]*e[5mC]*eG*eG*eT*eT) [compound 547470]
- % inhibition [9]: 70%
- % inhibition [10]: 68%

Substance: 546131 (eA*eT*eG*eA*eA*d[5mC]*dG*dG*dT*d[5mC]*dT*dT*d[5mC]*dA*dA*eG*e[5mC]*eT*eG*eT; antisense) [compound 546131]
- % inhibition [11]: 75%

Substance: 546210 (antisense e[5mC]*e[5mC]*eA*eA*eT*dT*dT*d[5mC]*dT*dG*dA*dA*dA*dG*dG*eG*e[5mC]*eA*e[5mC]*eA) [compound 546210]
- % inhibition [12]: 79%

Substance: 547608 (antisense eT*eA*eT*eA*eA*d[5mC]*dA*dA*dT*dA*dT*d[5mC]*dA*d[5mC]*dT*eG*eT*eA*e[5mC]*e[5mC]) [compound 547608]
- % inhibition [2]: 35%

Substance: 548782 (antisense eT*eA*e[5mC]*e[5mC]*dT*dA*dT*dA*dA*d[5mC]*dT*dA*dT*eA*eA*e[5mC]*eA) [compound 548782]
- % inhibition [6]: 0%

Substance: 546205 (antisense eG*eT*eA*e[5mC]*eT*dT*dT*dA*dA*dT*dA*dG*dG*d[5mC]*dA*eA*eT*eT*eG*eT) [compound 546205]
- % inhibition [12]: 83%

Substance: 546279 (eG*e[5mC]*eT*e[5mC]*e[5mC]*d[5mC]*dT*dT*dG*dT*dG*dT*d[5mC]*d[5mC]*d[5mC]*eA*eT*eA*e[5mC]*eG; antisense) [compound 546279]
- % inhibition (Table 8, HepaRG cells, electroporation with 5,000 nM antisense oligonucleotide, approx. 24 hours, PKK mRNA by RT-PCR (RTS3454), relative to untreated control cells): 82%

Substance: 547069 (eG*e[5mC]*e[5mC]*e[5mC]*eT*d[5mC]*d[5mC]*dG*dA*dG*d[5mC]*dT*dT*dT*dG*eG*e[5mC]*eA*eA*e[5mC]; antisense) [compound 547069]
- % inhibition [5]: 35%

Substance: 548742 (DNA eA*e[5mC]*eT*eG*dT*dA*d[5mC]*dT*dA*dG*dT*dT*dT*e[5mC]*e[5mC]*eT*eA; antisense) [compound 548742]
- % inhibition [6]: 50%

Substance: 546350 (antisense e[5mC]*e[5mC]*e[5mC]*eT*eG*d[5mC]*dG*dG*dG*d[5mC]*dA*d[5mC]*dA*dG*d[5mC]*e[5mC]*eT*eT*e[5mC]*eA) [compound 546350]
- % inhibition [9]: 88%
- % inhibition [10]: 74%

Substance: 547017 (eG*eG*eT*eA*eG*dG*dT*dG*dG*dT*dG*dG*dG*dA*dT*eT*eG*eG*eT*eG; antisense) [compound 547017]
- % inhibition [5]: 61%

Substance: 546362 (antisense eT*e[5mC]*eA*eT*eG*d[5mC]*dT*dG*dG*dT*dG*dA*d[5mC]*dT*dG*e[5mC]*eA*eT*e[5mC]*eT) [compound 546362]
- % inhibition [1]: 71%

Substance: 547559 (eG*eA*eG*e[5mC]*eA*d[5mC]*dA*dG*dA*dT*d[5mC]*dT*d[5mC]*dT*dT*e[5mC]*eA*eA*eG*eT; antisense) [compound 547559]
- % inhibition [4]: 69%

Substance: 547579 (eT*eG*eT*e[5mC]*e[5mC]*dT*dA*dT*dA*dA*d[5mC]*dT*d[5mC]*dT*dA*eA*e[5mC]*eA*eG*eT; antisense) [compound 547579]
- % inhibition [4]: 0%

Substance: 547334 (antisense eA*eA*eT*eG*eT*d[5mC]*dT*d[5mC]*dG*dA*dT*dG*dG*d[5mC]*dA*eA*eG*e[5mC]*eA*e[5mC]) [compound 547334]
- % inhibition [12]: 74%

Substance: 546151 (eG*eG*eA*eA*eG*d[5mC]*dT*dA*d[5mC]*dA*dT*d[5mC]*d[5mC]*d[5mC]*d[5mC]*eA*e[5mC]*e[5mC]*eT*e[5mC]; antisense) [compound 546151]
- % inhibition [11]: 76%

Substance: 547515 (antisense eA*eG*eA*eA*eG*dA*dT*dG*d[5mC]*d[5mC]*dA*d[5mC]*dT*d[5mC]*dT*e[5mC]*e[5mC]*eA*eT*eG) [compound 547515]
- % inhibition [1]: 58%

Substance: 547407 (eT*eT*e[5mC]*eA*eA*dT*dT*d[5mC]*dT*dT*d[5mC]*dT*d[5mC]*d[5mC]*dT*e[5mC]*e[5mC]*eA*eA*eA; antisense) [compound 547407]
- % inhibition [8]: 59%
